Consider three compounds from US20220089541A1, “Compounds for the Treatment of Kinase-Dependent Disorders” (Exelixis, Inc., priority 2019, published 2022).

In general, IC50 refers to the point on the concentration scale where inhibition reaches its midpoint. In general, half-life refers to how long it takes for the measured level to halve. Low values mean fast loss, high ones slow loss.

One series has as its target T1, Met (Homo sapiens, UniProt P08581).
T1 construct: host or cells: PC-3 prostate cancer cells
Nature of the series: Met autophosphorylation ELISA in PC-3 cells. It is filed as cell-based. Particulars: PC-3 prostate cancer cells, HGF-stimulated, phospho-Met ELISA, 1 h compound incubation; read-out: c-Met IC50. The protocol: Example B: Met Autophosphorylation ELISA in PC-3 Cells
PC-3 prostate cancer cells (ATCC #CRL-1435) were seeded at 4×10^4 cells/well onto 24-well plates (Greiner #662165), in DMEM (Thermo Fisher #11995-040) containing 10% FBS (Thermo Fisher #26140-079), 1% MEM NEAA (Thermo Fisher #11140-050), 1% GlutaMax (Thermo Fisher #35050-061), and 1% Penicillin Streptomycin (Thermo Fisher #15140-122). PC-3 cells were incubated at 37° C., 5% CO2 for 24 h and then starved for 3 h in serum-free medium. Test compounds were serially diluted to produce an 8-point dose curve in fresh serum-free medium to a final concentration of 0.3% DMSO (vehicle) and added to the cells and incubated for 1 h. Cells were then stimulated with 100 ng/mL recombinant human HGF (R&D Systems #294-HG-250) for 10 min, washed with cold PBS, and immediately lysed with 130 μL of cold IX lysis buffer [20 mM Tris, 137 mM sodium chloride, 2 mM EDTA, 10% glycerol, 1% NP-40 alternative, 1 mM activated sodium orthovanadate, 1 mM PefaBloc SC (Sigma-Aldrich #11429868001), protease/phosphatase inhibitor tablet (Thermo Fisher #A32959)]. Lysates were clarified by centrifugation and 100 μL/well added into the PathScan phospho-Met (panTyr) Sandwich ELISA (Cell Signaling Technology #7333). Assay was performed according to manufacturer's instructions. Positive control wells (100% activity) contained HGF-stimulated, DMSO-treated cell lysates. Negative control wells (0% activity) contained HGF-stimulated, reference inhibitor-treated cell lysates. IC50 values were calculated by nonlinear regression analysis using a 4-parameter logistic curve fit in ActivityBase XE (IDBS).
In general terms: An ELISA detects its analyte on a solid surface through an enzyme-linked reagent.

The target in another series is T2, AXL (Homo sapiens, UniProt P30530).
T2 construct: host or cells: A-172 glioblastoma cells
T2 sequence (P30530 26-894): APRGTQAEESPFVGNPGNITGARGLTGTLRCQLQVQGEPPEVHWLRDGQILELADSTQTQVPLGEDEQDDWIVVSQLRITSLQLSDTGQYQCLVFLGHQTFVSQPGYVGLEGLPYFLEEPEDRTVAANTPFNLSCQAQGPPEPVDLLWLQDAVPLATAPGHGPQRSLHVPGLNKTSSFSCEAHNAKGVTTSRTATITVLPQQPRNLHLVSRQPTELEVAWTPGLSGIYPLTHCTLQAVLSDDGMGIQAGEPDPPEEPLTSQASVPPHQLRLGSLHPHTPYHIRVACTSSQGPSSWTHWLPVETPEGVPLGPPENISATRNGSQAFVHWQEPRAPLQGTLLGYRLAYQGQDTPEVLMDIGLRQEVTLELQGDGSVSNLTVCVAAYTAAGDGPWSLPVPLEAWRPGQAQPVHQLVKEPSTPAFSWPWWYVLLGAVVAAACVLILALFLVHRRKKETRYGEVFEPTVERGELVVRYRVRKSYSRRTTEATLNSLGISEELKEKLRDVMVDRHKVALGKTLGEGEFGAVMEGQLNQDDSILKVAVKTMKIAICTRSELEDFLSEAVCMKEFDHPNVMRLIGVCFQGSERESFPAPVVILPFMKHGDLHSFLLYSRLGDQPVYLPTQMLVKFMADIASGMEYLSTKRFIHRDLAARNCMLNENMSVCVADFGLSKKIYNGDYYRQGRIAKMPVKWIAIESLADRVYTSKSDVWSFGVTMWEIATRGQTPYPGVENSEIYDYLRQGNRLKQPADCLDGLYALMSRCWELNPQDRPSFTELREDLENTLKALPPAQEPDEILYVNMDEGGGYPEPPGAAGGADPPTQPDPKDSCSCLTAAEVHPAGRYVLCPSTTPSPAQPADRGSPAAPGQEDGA
Nature of the series: AXL autophosphorylation ELISA in A-172 cells. Particulars: A-172 glioblastoma cells, Gas6-stimulated, phospho-AXL ELISA, 1 h compound incubation. It is filed as cell-based. The protocol:
Example A: AXL Autophosphorylation ELISA in A-172 Cells
A-172 glioblastoma cells (ATCC #CRL-1620) were seeded at 2.5×10^5 cells/well onto 24-well plates (Greiner #662165), in DMEM (Thermo Fisher #11995-040) containing 10% FBS (Thermo Fisher #26140-079), 1% MEM NEAA (Thermo Fisher #11140-050), 1% GlutaMax (Thermo Fisher #35050-061), and 1% Penicillin Streptomycin (Thermo Fisher #15140-122). A-172 cells were incubated at 37° C., 5% CO2 for 24 h and then starved for 24 h in serum-free medium. Test compounds were serially diluted to produce an 8-point dose curve in fresh serum-free medium to a final concentration of 0.3% DMSO (vehicle) and added to the cells and incubated for 1 h. Cells were then stimulated with 1 μg/mL recombinant human Gas6 (R&D Systems #885-GSB-500) for 15 min, washed with cold PBS, and immediately lysed with 150 μL of cold IX lysis buffer [20 mM Tris, 137 mM sodium chloride, 2 mM EDTA, 10% glycerol, 1% NP-40 alternative, 1 mM activated sodium orthovanadate, 1 mM PefaBloc SC (Sigma-Aldrich #11429868001), protease/phosphatase inhibitor tablet (Thermo Fisher #A32959)]. Lysates were collected and 100 μL/well added into the human phospho-AXL DuoSet IC ELISA (R&D Systems #DYC2228-2). Assay was performed according to manufacturer's instructions and sample phospho-AXL concentrations were extrapolated using human phospho-AXL control (R&D Systems #841645) as a standard. Positive control wells (100% activity) contained Gas6-stimulated, DMSO-treated cell lysates. Negative control wells (0% activity) contained Gas6-stimulated, reference inhibitor-treated cell lysates. IC50 values were calculated by nonlinear regression analysis using a 4-parameter logistic curve fit in ActivityBase XE (IDBS).

In the next series the target is T3, KDR (Homo sapiens, UniProt P35968).
T3 construct: host or cells: HUVEC (human umbilical vein endothelial cells)
Nature of the series: KDR autophosphorylation ELISA in HUVEC cells. It is filed as cell-based. Particulars: VEGF165-stimulated, phospho-KDR ELISA, 1 h compound incubation. The protocol: Example C: KDR Autophosphorylation ELISA in HUVEC Cells
umbilical vein endothelial cells or HUVEC (Lonza #C2519A) were seeded at 2×10^4 cells/well onto 96-well plates (Corning #3904), in EGM-2 growth medium (Lonza #CC-3162) containing 1% Penicillin Streptomycin (Thermo Fisher #15140-122). HUVEC cells were incubated at 37° C., 5% CO2 for 24 h and then starved for 24 h in serum-free EBM-2 basal medium (Lonza #CC-3156) containing 1% Penicillin Streptomycin. Test compounds were serially diluted to produce an 8-point dose curve in fresh serum-free medium to a final concentration of 0.3% DMSO (vehicle) and added to the cells and incubated for 1 h. Cells were then stimulated with 100 ng/mL recombinant human VEGF165 (R&D Systems #293-VE-500) for 5 min, washed with cold PBS, and immediately lysed with 130 μL of cold IX lysis buffer [20 mM Tris, 137 mM sodium chloride, 2 mM EDTA, 10% glycerol, 1% NP-40 alternative, 1 mM activated sodium orthovanadate, 1 mM PefaBloc SC (Sigma-Aldrich #11429868001), protease/phosphatase inhibitor tablet (Thermo Fisher #A32959)]. Lysates were collected and 100 μL/well added into the human phospho-KDR DuoSet IC ELISA (R&D Systems #DYC 1766-2). Assay was performed according to manufacturer's instructions and sample phospho-KDR concentrations were extrapolated using human phospho-KDR control (R&D Systems #841421) as a standard. Positive control wells (100% activity) contained VEGF165-stimulated, DMSO-treated cell lysates. Negative control wells (0% activity) contained non-stimulated cell lysates. IC50 values were calculated by nonlinear regression analysis using a 4-parameter logistic curve fit in ActivityBase XE (IDBS).

For series [1] the following is noted: microsomes, pH 7.4.
Experimental: (§1) Liver microsomes tissue fractions were used for in vitro assessment of metabolic stability of compounds by cytochrome P450 (CYP450) (for example, CYP3A4, CYP2C9) mediated phase I oxidation, and metabolism through other pathways. Human, mouse, rat, and dog liver microsomes tissue fractions were obtained from Corning Gentest and BioreclamationIVT.
(§2) The assay was carried out in 96-well microtiter plates. Compounds were incubated (N=l) at 37° C. in the presence of liver microsomes. Reaction mixtures (25 μL) contained a final concentration of 1 μM test compound, 0.5 mg/mL liver microsomes (LM) protein, and 1 mM NADPH in 100 mM potassium phosphate, pH 7.4 buffer with 3.3 mM MgCl2. The extent of metabolism was calculated as the disappearance of the test compound, compared to the 0-min control reaction incubations. Verapamil was included as a positive control to verily assay performance.
(§3) At each of the four time points, 150 μL of quench solution (100% acetonitrile with 0.1% formic acid) with internal standard (bucetin for positive ESI mode) was transferred to each well. Plates were sealed and centrifuged at 10° C. for 15 minutes at 4000 rpm. The supernatant was transferred to fresh plates for LC/MS/MS analysis.
(§4) All samples were analyzed on LC/MS/MS using an AB Sciex API 4000 instrument, coupled to a Shimadzu LC-20AD LC Pump system. Analytical samples were separated using a Waters Atlantis T3 dC18 reverse phase HPLC column (20 mm×2.1 mm) at a flow rate of 0.5 mL/min. The mobile phase consisted of 0.1% formic acid in water (solvent A) and 0.1% formic acid in 100% acetonitrile (solvent B).
For series [2] the following is noted: microsomes, pH 7.4. This is another data set of the same source.
Experimental: as §1, §2, §3, §4
For series [3] the following is noted: microsomes, pH 7.4. This is another data set of the same source.
Experimental: as §1, §2, §3, §4
Series [4] can be described thus: Microsomal assay, rat liver microsome stability. Particulars: liver microsomes, pH 7.4. In general terms: Liver microsomes are vesicles of endoplasmic reticulum, rich in cytochrome P450 enzymes.
Experimental: as §1, §2, §3, §4
The nature of series [5]: Microsomal assay, human liver microsome stability. Particulars: liver microsomes, pH 7.4.
Experimental: as §1, §2, §3, §4
The nature of series [6]: Microsomal assay, mouse liver microsome stability. Particulars: liver microsomes, pH 7.4.
Experimental: as §1, §2, §3, §4

T3 sequence (P35968 20-1356): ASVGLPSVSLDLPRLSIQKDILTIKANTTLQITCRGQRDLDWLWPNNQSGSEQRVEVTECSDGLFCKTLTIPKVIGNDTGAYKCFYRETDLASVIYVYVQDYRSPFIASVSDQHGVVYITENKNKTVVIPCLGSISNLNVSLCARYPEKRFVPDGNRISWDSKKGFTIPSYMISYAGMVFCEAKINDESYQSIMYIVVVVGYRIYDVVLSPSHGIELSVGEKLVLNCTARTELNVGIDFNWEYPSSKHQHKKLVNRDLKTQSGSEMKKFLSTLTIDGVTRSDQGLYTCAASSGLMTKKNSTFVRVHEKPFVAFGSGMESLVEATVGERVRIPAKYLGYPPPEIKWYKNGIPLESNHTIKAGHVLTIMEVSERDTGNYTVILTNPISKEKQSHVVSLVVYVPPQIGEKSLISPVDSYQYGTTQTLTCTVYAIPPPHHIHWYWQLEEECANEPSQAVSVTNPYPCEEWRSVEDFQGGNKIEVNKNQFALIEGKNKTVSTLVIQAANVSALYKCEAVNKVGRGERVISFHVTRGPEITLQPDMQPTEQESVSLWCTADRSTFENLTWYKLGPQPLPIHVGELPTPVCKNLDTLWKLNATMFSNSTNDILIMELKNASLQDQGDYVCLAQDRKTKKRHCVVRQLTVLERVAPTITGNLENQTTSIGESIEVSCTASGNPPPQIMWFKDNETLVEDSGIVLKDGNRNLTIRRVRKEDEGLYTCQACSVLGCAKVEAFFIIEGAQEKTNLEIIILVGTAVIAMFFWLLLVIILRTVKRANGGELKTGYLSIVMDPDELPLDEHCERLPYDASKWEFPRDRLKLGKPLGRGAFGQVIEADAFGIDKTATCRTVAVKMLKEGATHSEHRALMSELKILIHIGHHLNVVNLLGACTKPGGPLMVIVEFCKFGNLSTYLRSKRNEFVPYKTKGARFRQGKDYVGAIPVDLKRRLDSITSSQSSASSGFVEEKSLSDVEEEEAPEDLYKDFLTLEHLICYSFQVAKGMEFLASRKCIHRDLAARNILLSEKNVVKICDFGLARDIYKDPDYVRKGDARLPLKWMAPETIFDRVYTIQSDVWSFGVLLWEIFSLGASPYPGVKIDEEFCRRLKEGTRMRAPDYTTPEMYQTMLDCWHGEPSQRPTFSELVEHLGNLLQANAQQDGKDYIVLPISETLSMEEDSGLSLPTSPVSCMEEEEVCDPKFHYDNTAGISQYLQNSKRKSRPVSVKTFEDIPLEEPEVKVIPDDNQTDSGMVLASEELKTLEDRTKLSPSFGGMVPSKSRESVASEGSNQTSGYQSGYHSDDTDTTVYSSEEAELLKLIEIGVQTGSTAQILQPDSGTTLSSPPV
T1 sequence (P08581 25-1390): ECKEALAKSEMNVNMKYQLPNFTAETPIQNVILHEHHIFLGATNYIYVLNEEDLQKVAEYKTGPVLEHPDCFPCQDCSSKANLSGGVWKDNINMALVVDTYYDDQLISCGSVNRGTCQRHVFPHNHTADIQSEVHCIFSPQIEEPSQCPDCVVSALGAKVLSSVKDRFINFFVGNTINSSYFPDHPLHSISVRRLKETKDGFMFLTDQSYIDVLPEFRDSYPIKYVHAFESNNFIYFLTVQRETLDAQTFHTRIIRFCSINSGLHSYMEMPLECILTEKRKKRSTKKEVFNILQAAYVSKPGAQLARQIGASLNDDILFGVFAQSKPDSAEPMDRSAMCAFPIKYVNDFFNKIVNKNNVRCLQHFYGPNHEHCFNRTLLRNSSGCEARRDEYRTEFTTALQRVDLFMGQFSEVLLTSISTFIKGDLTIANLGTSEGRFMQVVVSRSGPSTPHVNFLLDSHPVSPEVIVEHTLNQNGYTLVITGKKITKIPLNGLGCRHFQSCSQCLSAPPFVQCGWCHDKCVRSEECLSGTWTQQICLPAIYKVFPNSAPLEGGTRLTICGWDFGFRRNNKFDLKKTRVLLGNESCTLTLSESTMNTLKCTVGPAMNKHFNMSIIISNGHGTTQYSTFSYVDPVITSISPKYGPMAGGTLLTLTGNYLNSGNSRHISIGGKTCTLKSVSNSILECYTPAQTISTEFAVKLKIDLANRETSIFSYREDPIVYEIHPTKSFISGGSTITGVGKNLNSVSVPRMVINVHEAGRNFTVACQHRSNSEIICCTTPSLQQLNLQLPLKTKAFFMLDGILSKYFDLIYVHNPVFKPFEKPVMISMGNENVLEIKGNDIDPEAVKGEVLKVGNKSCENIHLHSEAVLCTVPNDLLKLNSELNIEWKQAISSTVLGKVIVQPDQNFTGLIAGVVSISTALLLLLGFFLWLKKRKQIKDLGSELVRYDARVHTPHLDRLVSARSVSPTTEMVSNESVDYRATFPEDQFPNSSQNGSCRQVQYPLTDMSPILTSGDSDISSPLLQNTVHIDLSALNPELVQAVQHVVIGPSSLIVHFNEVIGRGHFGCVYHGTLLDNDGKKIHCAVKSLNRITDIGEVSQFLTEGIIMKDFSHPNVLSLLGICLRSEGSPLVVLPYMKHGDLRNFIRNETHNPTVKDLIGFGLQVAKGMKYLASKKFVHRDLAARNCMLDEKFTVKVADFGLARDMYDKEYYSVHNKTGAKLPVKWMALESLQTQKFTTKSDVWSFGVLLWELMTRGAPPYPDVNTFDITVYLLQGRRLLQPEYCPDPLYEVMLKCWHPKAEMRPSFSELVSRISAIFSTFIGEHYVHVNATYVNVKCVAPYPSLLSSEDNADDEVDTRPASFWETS

As to `COc1cc2nccc(Oc3ccc(NC(=O)C4(C(=O)N(C)c5ccc(F)cc5)CC4)cc3F)c2nc1OC` [Compound 44, 1-N-[4-[(6,7-Dimethoxy-1,5-naphthyridin-4-yl)oxy]-3-fluorophenyl]-1-N′-(4-fluorophenyl)-1-N′-methylcyclopropane-1,1-dicarboxamide], the IC50 on Met, against AXL and against KDR was more than 300 nM throughout.
For the compound “1-N-[4-(6,7-Dimethoxyquinolin-4-yl)oxyphenyl]-1-N′-(4-fluorophenyl)-1-N′-(methoxymethyl)cyclopropane-1,1-dicarboxamide [Compound 49]”, in series [1], the “Human Liver Microsome Stability CLint (μL/min/million cells)” value came to 1052 and the “Human Liver Microsome Stability t½” value worked out at 1.3 min. Also, in [2], the “Mouse Liver Microsome Stability CLint (μL/min/million cells)” value is listed as 928 and the “Mouse Liver Microsome Stability t½” value was found to be 1.49 min. In addition, in [3], the “Rat Liver Microsome Stability CLint (μL/min/million cells)” value was found to be 1028 and the “Rat Liver Microsome Stability t½” value amounted to 1.35 min.
In the case of `COc1cc2c(Oc3ccc(NC(=O)C4(C(=O)N(C)c5ccc(F)cc5)CC4)cc3F)ccnc2cc1OCCCN1CCOCC1` [Compound 11, N-(3-Fluoro-4-((6-methoxy-7-(3-morpholinopropoxy)quinolin-4-yl)oxy)phenyl)-N-(4-fluorophenyl)-N-methylcyclopropane-1,1-dicarboxamide], the IC50 on Met and at KDR was more than 300 nM throughout. Further, the half-life at 1 μM in series [4] was 1.6 min; in series [5], 1.6 min; in [6], 7.3 min.
